Data as given in US11497717B2, “Nanoparticles for use for treating a neuronal disorder” (NANOBIOTIX S.A., priority 2017, dated 2022).

B1: GDNF: glial cell-derived neurotrophic factor, neuroprotector used as reference (protein, UniProt P39905 78-211, looked up)
Glial cell line-derived …: SPDKQMAVLPRRERNRQAAAANPENSRGKGRRGQRGKNRGCVLTAIHLNVTDLGLGYETKEELIFRYCSGSCDAAETTYDKILKNLSRNRRLVSDKVGQACCRPIAFDDDLSFLDDNLVYHILRKHSAKRCGCI

Experiments:
[1] = system: amyloid beta 1-42 (Abeta 1-42)-induced model of Alzheimer's disease in frontal cortex cultures of mouse neurons; experiment: Rescue of amyloid beta 1-42-induced functional effects on neuronal networks, phenotypic MEA screening (Example 8); format: cell-based
[2] = system: MPP^+-treated mouse ventral midbrain/cortex co-cultures; experiment: Prevention/rescue efficacy on MPP+-induced neuronal networks, phenotypic MEA screening (Example 7); format: cell-based
Protocol: The prevention/rescue efficacy of nanoparticles of the invention was tested on MPP^+-treated mouse ventral midbrain/cortex co-cultures, cultured on a 48-wells MEA for 3 weeks. This model represents an in vitro Parkinson's model for screening compounds, based on the functional rescue of dopaminergic neurons using challenged midbrain/cortex cultures growing on MEAs. Midbrain is a region of the brain including the substantia nigra which is part of the basal ganglia and which contains most of the dopaminergic neurons. The evaluation of the nanoparticles' prevention/rescue effect was performed via the measurement of the extracellular electrical activity of the co-culture of neurons plated on Microelectrode Array (MEA) chips. […]
Midbrain and frontal cortex tissue was harvested from embryonic day 14.5 chr:NMRI mice (Charles River). […] Tissue was dissociated by enzymatic digestion (133.3 Kunitz units/ml DNase; 10 Units/ml Papain) and mechanical trituration, counted, vitality controlled, and plated in a 20 μl drop of DMEM containing laminin (10 μg/ml), 10% fetal bovine serum and 10% horse serum on MEAs. Cultures on MEAs were incubated at 37° C. in a 10% CO2 atmosphere until ready for use. […]
At day 21, 120 minutes of neuronal activity were recorded, and 30 minutes of stable activity were analyzed (FIG. 6). […]
Each unit represents the activity originating from one neuron recorded at one electrode. […]

Molecule	Effect Score ([1]; Abeta 1-42 100 nM at T0, nanoparticles (800 μM; [BaTiO3]=2000 μM) or donepezil 300 nM at T0+4 h, Control=0, Abeta group=1, 15 of 204 parameters)	Rescue efficacy ([1]; same treatment as Effect Score, Control set at 100%, Abeta group 0%)	Effect Score ([2]; nanoparticles ([Au] or [Si]=800 μM; [BaTiO3]=2000 μM) or GDNF 20 ng/ml at day 7, MPP+ 20 μM at day 8, recording at day 21, Control=0, MPP+ group=1, 18 of 204 parameters)	Prevention/rescue efficacy ([2]; same treatment as Effect Score, Control set at 100%, MPP+ group 0%)
COc1cc2c(cc1OC)C(=O)C(CC1CCN(Cc3ccccc3)CC1)C2 (stereo not shown) [Donepezil, donepezil]	0.46	54%		
B1			0.44	56%
